Data from patent EP4222493B1, “SCREENING TEST FOR CATSPER MODULATORS” (Westfälische Wilhelms-Universität Münster, priority 2020, dated 2022).

Molecular target: T1, CatSper channel (Homo sapiens, UniProt Q7RTX7+Q86XQ3+Q8NEC5+Q96P56)
T1 construct: endogenous in cells; host or cells: Sperm cells in untreated ejaculate from a healthy volunteer
Experiment: CatSper modulation test: sperm motility in a test solution essentially free of free calcium, determined by light microscopy
Format: cell-based
Settings: for motility: after about 10 minutes, normalized (first reading in the Ca2+-containing control = 100%)
Procedure: • Fig. 1: Time course of sperm motility in the CatSper modulation test. […] Sperm cells were exposed to a calcium-free buffer (grey curves) containing different concentrations of the exemplified CatSper inhibitor RU1968 at time t = 0 minutes up to t = 90 minutes. A control sample (black, HTF) was kept under Ca^2+-containing conditions. During a subsequent incubation at 37 °C, the motility in the sperm population was determined by light microscopy; the data was normalized (first reading in the Ca^2+-containing control = 100%).
The Ca^2+-containing solution being used in Figure 1 of the present invention corresponds to the HTF buffer (human tubular fluid) used for years in research with spermatozoa (Strünker et al. 2011, Nature 471, 382-386). The calcium-free solution is also based on this buffer. It is very likely that the test can also be carried out with buffer solutions of a different composition, as long as they are kept in the physiological range and comprise the herein mentioned ranges or values for calcium and magnesium. Table 1: Composition of the Ca2+-containing and the Ca2+-free solutions being used in the method of the present invention.
For performing a CatSper-Screening-Test, 178 µl of the calcium-free solution and 2 µl of the solvent used to prepare the test compound solution is used to produce the control solution (calcium-free solution without any test compound). A test solution is produced by adding 178 µl of the calcium-free solution and 2 µl of the test compound solution together. Optionally, another 180 µl of the calcium-containing solution (without any test compound) may further be used in another vial (see particular composition above in Tab. 1). The solutions are then stored at 4 °C and heated to 37 °C before use to warm up the solutions.
A spermatozoa (semen) sample is then obtained from a subject who is a healthy volunteer. A volume of 20 µl of the ejaculate is added to the calcium-free control, calcium-free test and calcium-containing solutions in each micro reaction tube. By low-speed vortex mixing or repeatedly inverting the micro reaction tubes, a homogeneous spermatozoa suspension is generated. Both micro reaction tubes are then incubated at 37 °C for 15 min. After incubation, the mixing step is repeated and the spermatozoa motility is determined for the conditions by counting a total number of 200 sperm cells. The fraction of motile sperm is then compared for the calcium-free control solution with and without any test compound. If a difference in the fraction of motile sperm is determined the test compound is identified as inhibitor / activator or no modulator of the CatSper activity.

| motility (3 µM inhibitor in Ca2+-free buffer, 37 °C, Fig. 2) | motility (6 µM inhibitor in Ca2+-free buffer, 37 °C, Fig. 2) [%] | motility (12 µM inhibitor in Ca2+-free buffer, 37 °C, Fig. 2) | SMILES | effect on CatSper ion channel activity in the CatSper-Screening-Test (10 µM, calcium-free solution, Fig. 1) | behaviour of sperm cells from healthy volunteers in the CatSper-Screening-Test (30 µM, calcium-free solution, Fig. 1) | sperm cell motility under essentially Ca2+-free conditions (different concentrations, t = 0 minutes up to t = 90 minutes, 37 °C, Fig. 2) |
| --- | --- | --- | --- | --- | --- | --- |
|  |  |  | CC(=O)[C@H]1CC[C@H]2[C@@H]3CCC4=CC(=O)CC[C@]4(C)[C@H]3CC[C@]12C [Progesterone, progesterone] | activates CatSper ion channel activity |  |  |
| about 106% | ~110 | about 116% | C[C@@H](NCCN(C)C)[C@@H]1CC[C@@H]2[C@H]3CCc4cc(O)ccc4[C@@H]3CC[C@]21C [RU1968] |  | behave in the same way as sperm from patients with CatSper dysfunction | modulates the sperm cell motility in a concentration-dependent manner |
